Results reported in ChEMBL document CHEMBL3885861, “Open TG-GATES”.

Organism: Rattus norvegicus
Assay: Open TG-GATES - Regimen: Single
Type: toxicity, organism-based, Sprague-Dawley
Set-up: regimen Single, gender Male, age 6 weeks
Settings: in vivo, po, route gavage; for TP / gamma-GTP / A/G / ALP / ALT / AST / BUN / CRE / Ca / Cl / GLC / IP / K / LDH / Na / PL / RALB / TC / TG: tissue Plasma; for APTT / Bas / Eos / Fbg / Hb / Ht / Lym / MCH / MCHC / MCV / Mono / Neu / PT / Plat / RBC / Ret / WBC: tissue Blood; for KIDNEY_L / KIDNEY_R / KIDNEY_TOTAL: tissue Kidney; for LIVER: tissue Liver
[1] = 1000 mg/kg, 24 h, dose level Middle
[2] = 2000 mg/kg, 3 h, dose level High
[3] = 2000 mg/kg, 6 h, dose level High
[4] = 2000 mg/kg, 9 h, dose level High
[5] = 2000 mg/kg, 24 h, dose level High

## O=C(O)c1ccccc1Nc1ccccc1 [FENAMIC ACID]
[1]
  TP: 5.6 g/dL
  gamma-GTP: 1 IU/L
[2]
  TERMINAL_BW: 207.1 g
  APTT: 15.4 s
  Bas: 0.8%
  Eos: 0.8%
  Fbg: 258.2 mg/dL
  Hb: 13.6 g/dL
  Ht: 39.9%
  Lym: 67.4%
  MCH: 20.6 pg
  MCHC: 34.1%
  MCV: 60.6 fL
  Mono: 3.2%
  Neu: 28%
  PT: 13.9 s
  Plat: 113.5 x10_4/uL
  RBC: 658.8 x10_4/ul
  Ret: 7.9%
  WBC: 76.3 x10_2/uL
  KIDNEY_L: 0.9 g
  KIDNEY_R: 0.9 g
  KIDNEY_TOTAL: 1.9 g
  LIVER: 7.7 g
  A/G: 0.9
  ALP: 1464.2 IU/L
  ALT: 41 IU/L
  AST: 75.6 IU/L
  BUN: 10.8 mg/dL
  CRE: 0.1 mg/dL
  Ca: 10.9 mg/dL
  Cl: 102.8 meq/L
  GLC: 181.8 mg/dL
  IP: 10.9 mg/dL
  K: 4.1 meq/L
  LDH: 88.2 IU/L
  Na: 143.4 meq/L
  PL: 93.4 mg/dL
  RALB: 2.6 g/dL
  TC: 52 mg/dL
  TG: 28.4 mg/dL
  TP: 5.5 g/dL
  gamma-GTP: 1.2 IU/L
[3]
  TERMINAL_BW: 206.9 g
  APTT: 15.5 s
  Bas: 0.8%
  Eos: 1%
  Fbg: 277.4 mg/dL
  Hb: 13.7 g/dL
  Ht: 40.6%
  Lym: 71.2%
  MCH: 21 pg
  MCHC: 33.6%
  MCV: 62.6 fL
  Mono: 3%
  Neu: 24%
  PT: 14.2 s
  Plat: 122.7 x10_4/uL
  RBC: 649.2 x10_4/ul
  Ret: 8.1%
  WBC: 106.2 x10_2/uL
  KIDNEY_L: 1 g
  KIDNEY_R: 1 g
  KIDNEY_TOTAL: 2 g
  LIVER: 7.4 g
  A/G: 0.9
  ALP: 1541.4 IU/L
  ALT: 36.4 IU/L
  AST: 76.2 IU/L
  BUN: 12 mg/dL
  CRE: 0.1 mg/dL
  Ca: 11.2 mg/dL
  Cl: 105.6 meq/L
  GLC: 133.2 mg/dL
  IP: 11.6 mg/dL
  K: 4 meq/L
  LDH: 92.8 IU/L
  Na: 145.4 meq/L
  PL: 105.2 mg/dL
  RALB: 2.6 g/dL
  TC: 49.8 mg/dL
  TG: 34.2 mg/dL
  TP: 5.6 g/dL
  gamma-GTP: 1 IU/L
[4]
  TERMINAL_BW: 209.9 g
  APTT: 21.5 s
  Bas: 0.6%
  Eos: 1%
  Fbg: 307.4 mg/dL
  Hb: 13.6 g/dL
  Ht: 39.9%
  Lym: 64.6%
  MCH: 20.7 pg
  MCHC: 34%
  MCV: 60.8 fL
  Mono: 3.2%
  Neu: 30.4%
  PT: 14.8 s
  Plat: 110.5 x10_4/uL
  RBC: 656.8 x10_4/ul
  Ret: 8.2%
  WBC: 93.3 x10_2/uL
  KIDNEY_L: 1 g
  KIDNEY_R: 0.9 g
  KIDNEY_TOTAL: 1.9 g
  LIVER: 7.5 g
  A/G: 0.9
  ALP: 1863.4 IU/L
  ALT: 41.8 IU/L
  AST: 82.2 IU/L
  BUN: 14.6 mg/dL
  CRE: 0.1 mg/dL
  Ca: 11.1 mg/dL
  Cl: 105.6 meq/L
  GLC: 144.6 mg/dL
  IP: 11.3 mg/dL
  K: 3.9 meq/L
  LDH: 80.8 IU/L
  Na: 145.6 meq/L
  PL: 105.8 mg/dL
  RALB: 2.7 g/dL
  TC: 45 mg/dL
  TG: 50.2 mg/dL
  TP: 5.7 g/dL
  gamma-GTP: 1 IU/L
[5]
  TERMINAL_BW: 211.9 g
  APTT: 15.6 s
  Bas: 1%
  Eos: 0.6%
  Fbg: 436 mg/dL
  Hb: 13.9 g/dL
  Ht: 40.7%
  Lym: 55.8%
  MCH: 20.5 pg
  MCHC: 34.1%
  MCV: 60.2 fL
  Mono: 3.4%
  Neu: 39%
  PT: 15.2 s
  Plat: 121.1 x10_4/uL
  RBC: 675.2 x10_4/ul
  Ret: 8.7%
  WBC: 138 x10_2/uL
  KIDNEY_L: 1 g
  KIDNEY_R: 1 g
  KIDNEY_TOTAL: 2 g
  LIVER: 8.4 g
  A/G: 0.8
  ALP: 2104 IU/L
  ALT: 41.6 IU/L
  AST: 62.2 IU/L
  BUN: 19.2 mg/dL
  CRE: 0.1 mg/dL
  Ca: 11.2 mg/dL
  Cl: 102.8 meq/L
  GLC: 145.8 mg/dL
  IP: 9.4 mg/dL
  K: 3.7 meq/L
  LDH: 131.8 IU/L
  Na: 141.2 meq/L
  PL: 91.4 mg/dL
  RALB: 2.6 g/dL
  TC: 38.2 mg/dL
  TG: 49.2 mg/dL
  TP: 5.7 g/dL
  gamma-GTP: 1 IU/L
